Source: ChEMBL document CHEMBL5625172, “Synthesis and evaluation of dihydrofuro[2,3-b]pyridine derivatives as potent IRAK4 inhibitors” (Eur J Med Chem, 2023)
Blank lines part the entries; values can stand above or below the molecule they belong to. Active and inactive are the calls of the source. The rule behind the calls is not given here.

Key:
[1] = target: T1, Interleukin-1 receptor-associated kinase 4 (Homo sapiens, UniProt Q9NWZ3); test: Inhibition of IRAK4 (unknown origin) using FAM-labeled peptide as substrate incubated for 10 mins in presence of ATP by mobility shift assay
T1 sequence (Q9NWZ3 whole entry): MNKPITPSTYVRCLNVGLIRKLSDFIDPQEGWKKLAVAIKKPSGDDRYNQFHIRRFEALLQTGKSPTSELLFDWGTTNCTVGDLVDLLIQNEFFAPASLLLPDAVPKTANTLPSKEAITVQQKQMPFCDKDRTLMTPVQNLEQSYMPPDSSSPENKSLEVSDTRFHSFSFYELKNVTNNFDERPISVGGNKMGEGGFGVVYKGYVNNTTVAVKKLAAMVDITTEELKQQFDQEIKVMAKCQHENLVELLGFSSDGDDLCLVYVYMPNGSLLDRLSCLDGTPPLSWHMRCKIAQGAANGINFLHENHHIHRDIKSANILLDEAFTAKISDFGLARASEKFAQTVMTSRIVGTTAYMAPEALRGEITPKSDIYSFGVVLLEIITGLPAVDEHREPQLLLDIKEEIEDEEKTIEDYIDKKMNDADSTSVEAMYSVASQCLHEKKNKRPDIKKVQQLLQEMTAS

[2] = Oral bioavailability in Sprague-Dawley rat at 5 to 10 mg/kg measured after 0.25 to 24 hrs by LC-MS analysis; format: ADME, organism-based; conditions: in vivo, dose lower 5 mg/kg, time lower 0.25 hrs, dose upper 10 mg/kg, time upper 24 hrs
[3] = Clearance in Sprague-Dawley rat at 2 mg/kg, iv measured after 5 mins to 24 hrs by LC-MS analysis; format: ADME, organism-based; conditions: in vivo, time 5-1440 min
Mus musculus = test: In vivo inhibition of LPS-induced TNF-alpha protein level in C57BL/6 mouse assessed as reduction in TNF-alpha level in serum at 50 to 100 mg/kg, po administered for 1 hr followed by LPS stimulation and measured after 3 hrs by ELISA; format: functional, organism-based; conditions: dose 50-100 mg/kg, time 4.0 hrs
[4] = Inhibition of LPS-induced IL-6 protein expression in immortalized mouse BMDM cells preincubated for 2 hrs followed by LPS stimulation and measured after 16 hrs by ELISA; format: functional, cell-based
[5] = target: Dual specificity tyrosine-phosphorylation-regulated kinase 1A (Homo sapiens, UniProt Q13627); test: Inhibition of DYRK1A (unknown origin) by scintillation proximity assay
[6] = Clearance in Sprague-Dawley rat assessed as liver blood flow at 2 mg/kg, iv measured after 5 mins to 24 hrs by LC-MS analysis; format: ADME, organism-based; conditions: in vivo, time 5-1440 min
[7] = Inhibition of LPS-induced TNFalpha protein expression in human PBMC cells preincubated for 2 hrs followed by LPS stimulation and measured after 16 hrs by ELISA; format: functional, cell-based
[8] = target: Receptor-type tyrosine-protein kinase FLT3 (Homo sapiens, UniProt P36888); test: Inhibition of FLT3 (unknown origin) by scintillation proximity assay
[9] = Plasma protein binding in CD-1 mouse by LC-MS analysis; format: ADME, cell-free; conditions: read-out: PPB (converted)
[10] = target: Epidermal growth factor receptor (Homo sapiens, UniProt P00533); test: Inhibition of EGFR (unknown origin) by scintillation proximity assay
Chain of Epidermal growth factor receptor (P00533 whole entry): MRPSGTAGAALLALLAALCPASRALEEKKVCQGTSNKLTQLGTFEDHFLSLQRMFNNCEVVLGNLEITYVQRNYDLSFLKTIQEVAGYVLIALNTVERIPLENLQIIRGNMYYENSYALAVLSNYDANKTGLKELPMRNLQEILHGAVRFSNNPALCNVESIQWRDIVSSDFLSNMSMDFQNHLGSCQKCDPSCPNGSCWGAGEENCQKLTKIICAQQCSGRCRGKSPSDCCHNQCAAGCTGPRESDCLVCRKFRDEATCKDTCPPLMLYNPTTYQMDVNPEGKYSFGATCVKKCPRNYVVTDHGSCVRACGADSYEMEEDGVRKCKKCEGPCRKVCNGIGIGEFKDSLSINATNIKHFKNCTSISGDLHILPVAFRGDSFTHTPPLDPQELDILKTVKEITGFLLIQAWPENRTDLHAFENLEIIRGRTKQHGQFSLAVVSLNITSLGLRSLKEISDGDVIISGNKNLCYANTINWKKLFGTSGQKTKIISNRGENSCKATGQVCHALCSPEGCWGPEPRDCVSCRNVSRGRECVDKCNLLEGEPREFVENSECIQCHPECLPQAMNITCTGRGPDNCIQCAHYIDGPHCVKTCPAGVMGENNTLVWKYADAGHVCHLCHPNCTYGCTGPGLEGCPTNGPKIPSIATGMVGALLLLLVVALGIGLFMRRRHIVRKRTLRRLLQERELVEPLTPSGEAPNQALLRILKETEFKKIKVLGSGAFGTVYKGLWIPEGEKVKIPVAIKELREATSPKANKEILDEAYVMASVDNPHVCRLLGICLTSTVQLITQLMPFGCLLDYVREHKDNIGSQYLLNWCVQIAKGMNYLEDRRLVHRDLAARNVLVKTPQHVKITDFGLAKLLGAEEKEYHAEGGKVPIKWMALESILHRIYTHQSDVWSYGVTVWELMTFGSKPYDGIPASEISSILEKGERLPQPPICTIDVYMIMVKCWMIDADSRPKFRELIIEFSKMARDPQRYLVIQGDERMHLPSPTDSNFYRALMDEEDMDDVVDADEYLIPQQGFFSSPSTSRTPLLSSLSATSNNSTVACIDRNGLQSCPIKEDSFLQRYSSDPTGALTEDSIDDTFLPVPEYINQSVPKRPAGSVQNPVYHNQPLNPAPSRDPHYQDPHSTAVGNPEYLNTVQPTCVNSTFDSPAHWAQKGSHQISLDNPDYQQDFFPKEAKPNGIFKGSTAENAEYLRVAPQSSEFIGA

CDK4/Cyclin D3 = CDK4/Cyclin D3 (Homo sapiens, UniProt P11802); test: Inhibition of CDK4/cyclinD3 (unknown origin) by scintillation proximity assay; format: protein-complex assay
[11] = Inhibition of LPS-induced TNFalpha protein expression in immortalized mouse BMDM cells preincubated for 2 hrs followed by LPS stimulation and measured after 16 hrs by ELISA; format: functional, cell-based
[12] = Plasma protein binding in human by LC-MS analysis; format: ADME, cell-free; conditions: read-out: PPB
MEF = test: Cytotoxicity against MEF cells at 3 uM; format: toxicity, cell-based; conditions: mouse
[13] = target: Receptor-interacting serine/threonine-protein kinase 2 (Homo sapiens, UniProt O43353); test: Inhibition of RIPK2 (unknown origin) by scintillation proximity assay
[14] = target: Tyrosine-protein kinase JAK1 (Homo sapiens, UniProt P23458); test: Inhibition of JAK1 (unknown origin) by scintillation proximity assay
[15] = target: MAP kinase-activated protein kinase 2 (Homo sapiens, UniProt P49137); test: Inhibition of MAPKAP-K2 (unknown origin) by scintillation proximity assay
Chain of MAP kinase-activated protein kinase 2 (P49137 whole entry): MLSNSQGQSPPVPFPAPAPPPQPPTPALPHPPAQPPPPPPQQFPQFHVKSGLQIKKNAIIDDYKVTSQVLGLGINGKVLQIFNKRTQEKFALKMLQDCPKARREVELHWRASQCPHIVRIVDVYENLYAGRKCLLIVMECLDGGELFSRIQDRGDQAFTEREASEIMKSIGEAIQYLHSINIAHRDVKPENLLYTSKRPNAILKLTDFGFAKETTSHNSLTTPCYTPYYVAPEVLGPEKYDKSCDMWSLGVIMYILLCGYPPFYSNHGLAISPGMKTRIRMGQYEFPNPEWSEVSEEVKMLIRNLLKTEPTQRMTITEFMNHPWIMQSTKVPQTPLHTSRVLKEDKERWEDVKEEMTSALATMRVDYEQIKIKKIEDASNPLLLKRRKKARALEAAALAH

[16] = target: Calcium/calmodulin-dependent protein kinase type 1 (Homo sapiens, UniProt Q14012); test: Inhibition of CaMKI (unknown origin) by scintillation proximity assay
Chain of Calcium/calmodulin-dependent protein kinase type 1 (Q14012 whole entry): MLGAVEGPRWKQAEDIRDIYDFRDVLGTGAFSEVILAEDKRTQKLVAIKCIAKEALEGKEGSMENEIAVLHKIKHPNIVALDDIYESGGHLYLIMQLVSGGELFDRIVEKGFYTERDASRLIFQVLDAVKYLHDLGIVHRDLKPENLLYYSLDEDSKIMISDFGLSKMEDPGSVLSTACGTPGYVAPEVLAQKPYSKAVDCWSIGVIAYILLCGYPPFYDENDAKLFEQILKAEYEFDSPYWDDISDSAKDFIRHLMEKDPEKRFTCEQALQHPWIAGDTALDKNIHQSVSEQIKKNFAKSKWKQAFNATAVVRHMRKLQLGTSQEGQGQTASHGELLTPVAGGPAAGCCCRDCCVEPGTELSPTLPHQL

[17] = Inhibition of LPS-induced TNFalpha mRNA expression in immortalized mouse BMDM cells preincubated for 2 hrs followed by LPS stimulation and measured after 16 hrs by qPCR analysis; format: functional, cell-based
[18] = target: Serine/threonine-protein kinase 17A (Homo sapiens, UniProt Q9UEE5); test: Inhibition of DRAK1 (unknown origin) by scintillation proximity assay
Chain of Serine/threonine-protein kinase 17A (Q9UEE5 whole entry): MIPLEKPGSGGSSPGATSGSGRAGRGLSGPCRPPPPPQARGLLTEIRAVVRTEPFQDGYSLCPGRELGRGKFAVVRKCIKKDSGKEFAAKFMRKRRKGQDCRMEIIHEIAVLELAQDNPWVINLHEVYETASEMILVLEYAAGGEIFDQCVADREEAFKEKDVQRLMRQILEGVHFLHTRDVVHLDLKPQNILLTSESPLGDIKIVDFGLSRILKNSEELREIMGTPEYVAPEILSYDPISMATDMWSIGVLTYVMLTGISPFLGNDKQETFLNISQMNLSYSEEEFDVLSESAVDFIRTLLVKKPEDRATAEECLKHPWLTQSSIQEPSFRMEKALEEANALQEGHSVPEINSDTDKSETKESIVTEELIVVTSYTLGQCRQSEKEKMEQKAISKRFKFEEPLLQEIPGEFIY

BMDM = test: Cytotoxicity against immortalized mouse BMDM cells at 3 uM; format: toxicity, cell-based
[19] = target: Serine/threonine-protein kinase MRCK alpha (Homo sapiens, UniProt Q5VT25); test: Inhibition of MRCKa (unknown origin) by scintillation proximity assay
[20] = target: Dual specificity protein kinase CLK1 (Homo sapiens, UniProt P49759); test: Inhibition of CLK1 (unknown origin) by scintillation proximity assay
Chain of Dual specificity protein kinase CLK1 (P49759 whole entry): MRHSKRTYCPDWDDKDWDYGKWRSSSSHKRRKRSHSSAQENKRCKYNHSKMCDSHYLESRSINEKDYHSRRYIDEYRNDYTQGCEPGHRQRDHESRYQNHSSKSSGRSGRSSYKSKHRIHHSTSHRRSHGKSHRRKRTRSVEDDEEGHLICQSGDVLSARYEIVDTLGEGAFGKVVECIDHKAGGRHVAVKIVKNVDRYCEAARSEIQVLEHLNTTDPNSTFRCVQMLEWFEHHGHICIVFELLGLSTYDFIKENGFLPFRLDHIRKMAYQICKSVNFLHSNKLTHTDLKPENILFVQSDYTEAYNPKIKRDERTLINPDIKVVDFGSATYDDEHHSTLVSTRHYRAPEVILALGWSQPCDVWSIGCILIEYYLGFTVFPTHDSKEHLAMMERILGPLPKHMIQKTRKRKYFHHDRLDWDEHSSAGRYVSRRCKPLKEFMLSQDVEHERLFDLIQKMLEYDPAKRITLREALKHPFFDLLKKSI

[21] = target: Tyrosine-protein kinase BTK (Homo sapiens, UniProt Q06187); test: Inhibition of BTK (unknown origin) by scintillation proximity assay
Chain of Tyrosine-protein kinase BTK (Q06187 whole entry): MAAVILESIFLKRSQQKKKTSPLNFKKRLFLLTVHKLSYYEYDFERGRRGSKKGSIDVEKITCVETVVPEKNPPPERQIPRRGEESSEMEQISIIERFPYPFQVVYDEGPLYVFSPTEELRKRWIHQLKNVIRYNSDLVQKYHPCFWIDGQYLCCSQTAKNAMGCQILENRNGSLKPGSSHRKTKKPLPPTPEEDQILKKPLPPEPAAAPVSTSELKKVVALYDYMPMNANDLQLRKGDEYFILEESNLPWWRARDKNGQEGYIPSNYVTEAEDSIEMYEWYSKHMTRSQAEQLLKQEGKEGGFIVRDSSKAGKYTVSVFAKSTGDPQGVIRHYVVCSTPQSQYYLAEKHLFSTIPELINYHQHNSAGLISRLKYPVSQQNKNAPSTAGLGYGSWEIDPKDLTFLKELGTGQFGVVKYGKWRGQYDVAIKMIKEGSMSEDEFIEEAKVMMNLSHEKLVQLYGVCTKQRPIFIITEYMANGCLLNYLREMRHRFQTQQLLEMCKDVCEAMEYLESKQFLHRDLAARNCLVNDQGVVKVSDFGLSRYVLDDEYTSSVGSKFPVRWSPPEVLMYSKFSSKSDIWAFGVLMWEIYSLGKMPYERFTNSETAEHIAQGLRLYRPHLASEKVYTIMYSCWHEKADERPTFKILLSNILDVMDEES

[22] = Inhibition of LPS-induced IL-6 mRNA expression in human PBMC cells preincubated for 2 hrs followed by LPS stimulation and measured after 16 hrs by qPCR analysis; format: functional, cell-based
[23] = target: Serine/threonine-protein kinase 38 (Homo sapiens, UniProt Q15208); test: Inhibition of NDR1 (unknown origin) by scintillation proximity assay
[24] = Plasma protein binding in Sprague-Dawley rat by LC-MS analysis; format: ADME, cell-free; conditions: read-out: PPB (converted)
[25] = target: Serine/threonine-protein kinase B-raf (Homo sapiens, UniProt P15056); test: Inhibition of B-Raf (unknown origin) by scintillation proximity assay
Chain of Serine/threonine-protein kinase B-raf (P15056 whole entry): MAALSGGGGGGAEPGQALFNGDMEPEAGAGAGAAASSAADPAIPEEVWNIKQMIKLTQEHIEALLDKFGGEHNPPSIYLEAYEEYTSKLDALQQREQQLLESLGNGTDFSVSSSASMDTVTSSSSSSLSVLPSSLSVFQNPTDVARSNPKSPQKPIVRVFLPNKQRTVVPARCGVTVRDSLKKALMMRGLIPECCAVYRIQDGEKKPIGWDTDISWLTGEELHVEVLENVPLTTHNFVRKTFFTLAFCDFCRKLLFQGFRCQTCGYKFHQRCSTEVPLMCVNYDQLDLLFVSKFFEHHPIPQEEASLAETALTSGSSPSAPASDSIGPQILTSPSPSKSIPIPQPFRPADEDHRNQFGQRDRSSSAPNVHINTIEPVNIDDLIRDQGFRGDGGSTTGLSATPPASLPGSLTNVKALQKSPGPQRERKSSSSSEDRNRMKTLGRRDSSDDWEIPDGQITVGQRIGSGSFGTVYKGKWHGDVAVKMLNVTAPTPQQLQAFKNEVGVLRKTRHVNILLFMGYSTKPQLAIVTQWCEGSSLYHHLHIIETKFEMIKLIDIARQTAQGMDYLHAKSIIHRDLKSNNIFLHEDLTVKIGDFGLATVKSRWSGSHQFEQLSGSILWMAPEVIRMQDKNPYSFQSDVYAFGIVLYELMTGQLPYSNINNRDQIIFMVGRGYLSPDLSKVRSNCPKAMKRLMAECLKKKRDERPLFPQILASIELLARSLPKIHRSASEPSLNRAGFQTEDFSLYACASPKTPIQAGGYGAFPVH

[26] = target: Receptor-interacting serine/threonine-protein kinase 1 (Homo sapiens, UniProt Q13546); test: Inhibition of RIPK1 (unknown origin) by scintillation proximity assay
[27] = Inhibition of LPS-induced IL-6 mRNA expression in immortalized mouse BMDM cells preincubated for 2 hrs followed by LPS stimulation and measured after 16 hrs by qPCR analysis; format: functional, cell-based
[28] = target: Mitogen-activated protein kinase kinase kinase 5 (Homo sapiens, UniProt Q99683); test: Inhibition of ASK1 (unknown origin) by scintillation proximity assay
[29] = Cytotoxicity against Splenocytes (unknown origin) at 3 uM; format: toxicity, cell-based; conditions: splenocyte
[30] = target: Serine/threonine-protein kinase PAK 1 (Homo sapiens, UniProt Q13153); test: Inhibition of PAK1 (unknown origin) by scintillation proximity assay
Chain of Serine/threonine-protein kinase PAK 1 (Q13153 whole entry): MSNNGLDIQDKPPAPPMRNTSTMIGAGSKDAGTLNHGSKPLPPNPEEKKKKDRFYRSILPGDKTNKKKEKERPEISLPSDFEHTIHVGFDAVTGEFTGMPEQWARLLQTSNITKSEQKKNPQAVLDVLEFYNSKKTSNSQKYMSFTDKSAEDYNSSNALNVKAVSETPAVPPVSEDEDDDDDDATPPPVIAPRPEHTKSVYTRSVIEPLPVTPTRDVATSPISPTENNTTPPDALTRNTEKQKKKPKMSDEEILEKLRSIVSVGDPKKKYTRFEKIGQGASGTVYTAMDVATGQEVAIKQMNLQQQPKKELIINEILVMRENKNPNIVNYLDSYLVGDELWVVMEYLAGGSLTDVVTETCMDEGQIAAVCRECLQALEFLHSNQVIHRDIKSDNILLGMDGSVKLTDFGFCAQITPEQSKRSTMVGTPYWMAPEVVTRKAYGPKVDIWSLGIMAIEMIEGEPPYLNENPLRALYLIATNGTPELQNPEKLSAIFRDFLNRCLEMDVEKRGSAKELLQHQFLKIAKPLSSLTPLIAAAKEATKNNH

[31] = target: Interleukin-1 receptor-associated kinase 1 (Homo sapiens, UniProt P51617); test: Binding affinity to IRAK1 (unknown origin) by kinomescan competition binding assay
[32] = target: Homeodomain-interacting protein kinase 1 (Homo sapiens, UniProt Q86Z02); test: Inhibition of HIPK1 (unknown origin) by scintillation proximity assay
[33] = Inhibition of CDK2/cyclinA (unknown origin) by scintillation proximity assay; design: species or system Homo sapiens
[34] = target: cAMP-dependent protein kinase catalytic subunit beta (Homo sapiens, UniProt P22694); test: Inhibition of PKA-C beta (unknown origin) by scintillation proximity assay

IC50 [1]: 96 nM
SMILES: CCOc1nc2c(cc1C(=O)Nc1cnn3cccnc13)CC(C)(C)O2

IC50 [1]: 51 nM
SMILES: COc1nc2c(cc1C(=O)Nc1cccc(-c3cnn(C)c3)n1)CC(C)(C)O2

bioavailability [2]: 7.5%
IC50 [1]: 5.8 nM
clearance [3]: 44 mL/min/kg
SMILES: CC(C)Oc1nc2c(cc1C(=O)Nc1cccc(-c3cnn(C)c3)n1)CC(C)(C)O2

IC50 [1]: 74 nM
SMILES: CN1CCC(Oc2nc3c(cc2C(=O)Nc2cccc(-c4cnn(C)c4)n2)CC(C)(C)O3)C1 (stereo unspecified)

IC50 [1]: 75 nM
SMILES: CCOc1nc2c(cc1C(=O)Nc1cccc(-c3ccnn3C)n1)CC(C)(C)O2

IC50 [1]: 194 nM
SMILES: CCOc1nc2c(cc1C(=O)Nc1cccc(C(F)(F)F)n1)CC(C)(C)O2

bioavailability [2]: 1.5%
clearance [3]: 58 mL/min/kg
SMILES: Cn1cc(-c2cccc(NC(=O)c3cc4c(nc3OC3COC3)OC(C)(C)C4)n2)cn1

IC50 [1]: 111 nM
SMILES: CNCCOc1nc2c(cc1C(=O)Nc1cccc(-c3cnn(C)c3)n1)CC(C)(C)O2

bioavailability [2]: 3.1%
IC50 [1]: 6 nM
clearance [3]: 41 mL/min/kg
SMILES: Cn1cc(-c2cccc(NC(=O)c3cc4c(nc3OC3CCC3)OC(C)(C)C4)n2)cn1

IC50 [1]: 87 nM
SMILES: CCOc1nc2c(cc1C(=O)Nc1cccc(OC)n1)CC(C)(C)O2

bioavailability [2]: 11%
clearance [3]: 18 mL/min/kg
SMILES: Cn1cc(-c2cccc(NC(=O)c3cc4c(nc3O[C@H]3C[C@H](O)C3)OC(C)(C)C4)n2)cn1

IC50 [1]: 379 nM
SMILES: Cn1cc(-c2cccc(NC(=O)c3cc4c(nc3OC3CCNC3)OC(C)(C)C4)n2)cn1 (stereo unspecified)

Further lines, the molecule ahead of its results:

SMILES: Cn1cc(-c2cccc(NC(=O)c3cc4c(nc3OC3CC3)OC(C)(C)C4)n2)cn1
bioavailability [2]: 1.6%
clearance [3]: 43 mL/min/kg

SMILES: CCOc1nc2c(cc1C(=O)Nc1cccc(C)n1)CC(C)(C)O2
IC50 [1]: 112 nM

SMILES: CCOc1nc2c(cc1C(=O)Nc1cccc(-c3ccn(C)n3)n1)CC(C)(C)O2
IC50 [1]: 1370 nM

SMILES: CCOc1nc2c(cc1C(=O)Nc1cccc(-c3cnn(C)c3)n1)CC(C)(C)O2
bioavailability [2]: 3.6%
clearance [3]: 43 mL/min/kg

SMILES: CCOc1nc2c(cc1C(=O)Nc1cnn(C)c1)CC(C)(C)O2
IC50 [1]: > 6000 nM

SMILES: Cn1cc(-c2cccc(NC(=O)c3cc4c(nc3O[C@H]3C[C@@H](O)C3)OC(C)(C)C4)n2)cn1
inhibition (Mus musculus): Active
IC50 [4]: 130 nM
IC50 [5]: 34 nM
LBF [6]: < 30%
IC50 [7]: 54.1 nM
IC50 [8]: 11 nM
fraction unbound [9]: 0.02
IC50 [10]: > 30000 nM
IC50 (CDK4/Cyclin D3): > 30000 nM
IC50 [11]: 495 nM
bioavailability [2]: 21%
fraction unbound [12]: 0.01
Activity (MEF): Toxic
IC50 [13]: 8350 nM
IC50 [14]: > 30000 nM
IC50 [15]: > 30000 nM
IC50 [16]: > 30000 nM
IC50 [17]: 1200 nM
IC50 [18]: 788 nM
Activity (BMDM): Toxic
IC50 [19]: > 30000 nM
clearance [3]: 12 mL/min/kg
IC50 [20]: 9 nM
IC50 [21]: > 30000 nM
IC50 [22]: 560 nM
IC50 [23]: 16500 nM
fraction unbound [24]: 0.03
IC50 [25]: 25700 nM
IC50 [26]: 4690 nM
IC50 [27]: 214 nM
IC50 [28]: > 30000 nM
Activity [29]: Toxic
IC50 [30]: > 30000 nM
Kd [31]: 13 nM
IC50 [32]: 26500 nM
IC50 [33]: 2990 nM
IC50 [34]: > 30000 nM

SMILES: Cn1cc(-c2cccc(NC(=O)c3cc4c(nc3OC3CCCC3)OC(C)(C)C4)n2)cn1
IC50 [1]: 5.7 nM

SMILES: Cn1cc(-c2cccc(NC(=O)c3cc4c(nc3O[C@@H]3CCOC3)OC(C)(C)C4)n2)cn1
bioavailability [2]: 6.2%
clearance [3]: 31 mL/min/kg

SMILES: CCOc1nc2c(cc1C(=O)Nc1cccc(C(F)F)n1)CC(C)(C)O2
IC50 [1]: 48 nM
